Results as given in patent US10292945B2, “Dressings that contain active substance” (BEIERSDORF AG, priority 2011, dated 2019).

Test: Active substance release from acrylate adhesive matrix into pig skin by Franz's cells, HPLC determination
Type: in vitro ADME
Text: The release of the active ingredients within the product is advantageously adjusted such that an effect can still be perceived even after a period of 2 days. The delayed effect of the active substances used is achieved here from combination of active substance content and auxiliaries. The release of the active substances can be controlled over a wide time range via the use of e.g. plasticizers and fillers. Examples of such systems are pain patches on the market that contain opiates such as fentanyl, which are applied over several days up to a week and ensure an absolutely uniform release of the active substance over the entire application time. For the determination of the release rate of vanillyl butyl ether (VBE) from e.g. acrylate compositions, it was incorporated into the adhesive compositions in an amount of 0.75% and the release was ascertained over the time in pig skin by means of Franz's cells. Determination of the released amounts into the full-thickness skin was then carried out by HPLC.
One possible measure to increase the active ingredient release is the use of solubilizers. […] For the two other additives, lower values were determined, meaning that decyl oleate (Cetiol V) in particular is a preferred solubilizer in the adhesive composition. […]

CCCCCCCC/C=C\CCCCCCCC(=O)OCCCCCCCCCC [Cetiol V, decyl oleate]
Effect of added solubilizer on released amount of VBE in pig skin: significant increase in the released amount of VBE
